# According to patent US8987201B2, “Black bear parathyroid hormone and methods of using black bear parathyroid hormone” (Michigan Technological University, priority 2009, dated 2015):
# Marks after values point to notes of the source that are not given here.
# What was measured:
# Male Swiss-Webster mice [1] = assay: Trabecular bone structure and mineralization in the proximal tibia (micro-computed tomography); format: in vivo, mouse; conditions: PTH 1-84 study: 12 wk old mice, 8 weeks, proximal tibia, normalized by body mass
# Description: (§1) All handling procedures and experiments were approved by the Michigan Technological University Institutional Animal Care and Use Committees. Male Swiss-Webster mice were obtained from a commercial breeder (Harlan, Indianapolis, Ind.). All animals were maintained on a 12-h light/12-h dark cycle, and were permitted free access to water and food containing 0.95% calcium (Purina Rodent Diet #5001).
# (§2) In the first experiment, 11 wk old mice received daily (5 days/week) subcutaneous injections of 2.5 nmol/kg PTH 1-34 (hPTH 1-34 or bbPTH 1-34) or acidic saline vehicle (0.15 M NaCl+0.001 N HCl) for 8 weeks (n=10 mice/group). In the second experiment, 12 wk old mice received daily (5 days/week) subcutaneous injections of 2.5 nmol/kg PTH 1-84 (hPTH 1-84 or bbPTH 1-84) or acidic saline vehicle for 8 weeks (n=10 mice/group). All PTH- and vehicle-treated animals received subcutaneous injections of calcein at a dosage of 10 mg/kg on days 12 and 3 before death to label mineralizing bone surfaces. Twenty-four hours following the last treatment injection, mice were sacrificed by carbon dioxide asphyxiation. Right femurs were fixed in 10% neutral buffered formalin. Left femurs were wrapped in 0.15M saline soaked gauze and stored at −20 deg C. Left tibias were stored in 70% ethanol at 4 deg C.
# Trabecular bone architecture and mineralization were evaluated in the left proximal tibial metaphysis (0.7 mm distal to the growth plate) using micro-computed tomography. Tibias from experiment 1 were scanned on a μCT35 scanner (Scanco Medical AG, Basserdorf, Switzerland) at 3.5 μm (high) resolution. Tibias from experiment 2 were scanned on a μCT40 scanner (Scanco Medical AG, Basserdorf, Switzerland) at 7 μm (high) resolution. Bones were scanned in 70% ethanol. Trabecular bone volume fraction (BV/TV, %), trabecular number (Tb.N, mm^−1), trabecular thickness (Tb.Th, m), trabecular separation (Tb.Sp, m), trabecular apparent mineral density (App.Mn.Dn, mgHA/cm^3) and trabecular tissue mineral density (Mat.Mn.Dn, mgHA/cm^3) were computed using the manufacturer's software.
# (§3) All bone geometrical, architectural, and mineral properties were normalized by body mass to account for potential variation in animal size (31-33). Trabecular bone properties quantified by micro-computed tomography were compared by ANOVA between vehicle, bear, and human PTH-treated mice within each study (PTH 1-34 or PTH 1-84). The microCT parameters were not directly compared between the PTH 1-34 and PTH 1-84 studies because analyses were conducted on different microCT machines. For all other bone properties, all six experimental groups (from both the PTH 1-34 and PTH 1-84 studies) were compared with ANOVA and Fisher's PLSD. A significance of p<0.05 was used for all comparisons.
# procollagen-1 mRNA = conditions: Nasu et al., 1998; cited from earlier work
# rats = conditions: cited from earlier work
# MC3T3 subclone 4 cells = assay: PTH attenuation of serum-starvation induced caspase-3/7 activity; format: cell-based, mouse; conditions: all concentrations pooled; bbPTH 1-34 vs hPTH 1-34 p=0.006, vs either PTH 1-84 p≦0.018; bbPTH 1-84 vs hPTH 1-84 p=0.090
# Experimental: MC3T3 subclone 4 cells (ATCC, CRL-2593) were maintained in standard culture media (89% alpha-minimum essential media, 1% penicillin/streptomycin, and 10% FBS) at 37° C. in 5% CO2. Cells were not used beyond passage 30.
# MC3T3 cells were seeded at a density of 20,000 cells/well in 96-well plates and allowed to attach overnight. Culture media was then aspirated and replaced with 100 μl of culture media containing 10% FBS and either vehicle (PBS) or PTH (10-100 nM) for one hour, after which media was aspirated and cells were washed with PBS to remove residual serum. To induce apoptosis, cells were incubated in control or serum-free media for 6 hours. Replacement media contained 89% alpha-minimum essential media, 1% penicillin/streptomycin, and either 10% FBS (control media) or 0% FBS (starvation media). After starvation, media was aspirated, cells were washed with PBS, and 50 μl of fresh PBS was added to each well. Caspase-3/7 activity was determined by cleavage of a DEVD substrate (Caspase-Glo 3/7 Assay, #G8093, Promega Corporation). Measured luminescence values were fit to a standard curve prepared with known concentrations of recombinant human caspase-3 (#SE-169, BIOMOL Research Laboratories Inc.). Five wells of each treatment were run per 96-well plate, and procedures were repeated on a minimum of 10 plates. […]
# Male Swiss-Webster mice [2] = assay: Cortical bone dynamic histomorphometry in the femur (calcein labels); format: in vivo, mouse; conditions: femoral midshaft, 2.5 nmol/kg s.c., 8 weeks, SD in parentheses
# Description: as §1, §2
# (§4) Following the bending test, the left femoral diaphyses were ashed in a furnace to determine mineral content (ash fraction). Right femoral diaphyses were embedded in methyl methacrylate and sectioned with a diamond saw to expose the midshaft cross-section. Images of the midshaft cross-sections were captured using a digital camera (Spot Insight QE, Diagnostic Instruments Inc., Sterling Heights, Mich.), and Scion Image analysis software (Scion Corporation, Frederick, Md.) was used to calculate the periosteal area (Ps.Ar), cortical area (Ct.Ar), and endosteal area (Es.Ar) for each sample. Cortical bone thickness (Ct.Th) was calculated in 0.1 mm increments for each anatomical quadrant and for the entire cross-section using image analysis software (Bioquant Osteo, Nashville, Tenn.). Thin sections from the midshaft of the right femur were ground to a thickness of 50 μm and mounted on glass slides. Images of calcein labels were captured at 100× magnification and periosteal and endosteal mineral apposition rates (Ps.MAR and Es.MAR, respectively) and mineralizing surfaces (Ps.MS/BS and Es.MS/MS) were quantified (Bioquant) for each femur.
# as §3
# [3] = test system: ovariectomized (OVX) Sprague-Dawley rats; assay: In vivo effects of human PTH1-84 and bear PTH1-84 in ovariectomized rats; parameters: species or system rat; conditions: 2.5 nmol/kg s.c., eight weeks
# Experimental: Thirty female, 2.5-month old Sprague-Dawley rats were ovariectomized (OVX) at the commercial breeding facility The OVX animals were randomly assigned into 3 groups of 10 animals per group for further experiments.
# Six weeks after the OVX procedure, the rats were injected subcutaneously for an eight-week period (daily for five days per week) with vehicle (saline) or 2.5 nmol/kg bear or human PTH1-84. Animals were euthanized 24 hours after the last injection. Samples were obtained from the euthanized animals for further analysis.
# Femur bending strength and proximal tibia trabecular architecture were investigated as described in Example 12.
# [4] = test system: human fetal osteoblasts (hFOB); assay: Serum starvation cell death in human fetal osteoblasts (trypan blue); format: cell-based; conditions: 100 nM for 1 hour before serum starvation for 24 hours, preliminary studies, p<0.0001
# Experimental: All PTH peptides used in the current study attenuated apoptotic signaling induced by serum starvation in vitro (FIG. 19). bbPTH 1-34 reduced apoptotic signaling in pre-osteoblastic cells more than human PTH (FIG. 19). Recently, we found similar results with preliminary studies in human fetal osteoblasts (hFOB). Serum starvation for 24 hours increased cell death in hFOB (confirmed via trypan blue staining), but pretreatment of hFOB cells with 100 nM PTH 1-34 or 1-84 for 1 hour before starvation reduced percent cell death (percentage change in cell death compared to vehicle pretreatment, hPTH 1-34: −18%, bbPTH 1-34: −25%, hPTH 1-84: −17%, bbPTH 1-84: −21%; p<0.0001; data not shown). […] However, although bbPTH 1-84 was less anti-apoptotic than bbPTH 1-34 and hPTH 1-34 in vitro (FIG. 19) it caused the greatest increases in cortical and trabecular bone mass in the in vivo studies (Table 1, Table 2).
# Male Swiss-Webster mice [5] = assay: Cortical bone mineral content (ash fraction) and geometrical properties of the femur; format: in vivo, mouse; conditions: femoral midshaft, 2.5 nmol/kg s.c., 8 weeks, normalized by body mass, SD in parentheses
# Description: as §1, §2, §4, §3
# [6] = test system: men and women with age-related osteoporosis; conditions: 20-30% of cortical and cancellous bone lost; cited from earlier work
substance,measurement,setting,value
human PTH1-84 [hPTH 1-84],BV/TV,Male Swiss-Webster mice [1]; 2.5 nmol/kg s.c. daily 5 days/week,1.34 %/kg
same,App. Mn. Dn,Male Swiss-Webster mice [1]; 2.5 nmol/kg s.c.,2513 ^b mgHA/(cm^3*kg)
same,Mat. Mn. Dn.,Male Swiss-Webster mice [1]; 2.5 nmol/kg s.c.,29810 mgHA/(cm^3*kg)
same,Tb. N,Male Swiss-Webster mice [1]; 2.5 nmol/kg s.c.,98.7 1/mm*kg
same,Tb. Sp,Male Swiss-Webster mice [1]; 2.5 nmol/kg s.c.,9.57 mm/kg
same,Tb. Th,Male Swiss-Webster mice [1]; 2.5 nmol/kg s.c.,1.26 mm/kg
same,production of procollagen-1 mRNA,procollagen-1 mRNA,does not
same,rate of carcinogenicity compared to human PTH 1-34,"rats; rat, in vivo",lower rate of carcinogenicity
same,"caspase-3/7 activity, comparison between peptide groups",MC3T3 subclone 4 cells,lower levels of apoptosis
same,Endosteal MAR,Male Swiss-Webster mice [2],0.62 ( ).39)
same,Endosteal MS/BS,Male Swiss-Webster mice [2],32.1 (19.4)
same,Periosteal MAR,Male Swiss-Webster mice [2],0.60 (0.40)
same,Periosteal MS/BS,Male Swiss-Webster mice [2],20.2 (16.7)
same,bone volume fraction / trabecular bone volume,[3],equivalently increase
same,percentage change in cell death compared to vehicle pretreatment,[4],−17%
same,Ct.Ar,Male Swiss-Webster mice [5],29.0 (3.7) mm^2/kg
same,Ct.Th,Male Swiss-Webster mice [5],3.41 (0.59)^a mm/kg
same,Es.Ar,Male Swiss-Webster mice [5],25.6 (3.3) mm^2/kg
same,Ps.Ar,Male Swiss-Webster mice [5],"54.6 (4.4)^b,c mm^2/kg"
"ALX1-11: recombinant human PTH 1-84 (NPS Pharmaceuticals), under consideration for approval by the FDA",bone recovered during the suggested treatment regimen,[6],8%
same,osteosarcoma in rats,rats; long-term usage,generates osteosarcoma
